Experimental data published in patent publication US20050107437A1, “Novel herbicides” (priority 2001, published 2005).

Columns and labels:
Format in all cases: in vivo
[1] = test system: Echinochloa (Ds) (Echino); test: Post-emergence herbicidal action (Example B2); conditions: 1000 g of active ingredient/ha, evaluated after 2 to 3 weeks, scale 1-9
Description: (§1) Monocotyledonous and dicotyledonous test plants are sown in standard soil in pots. When the test plants are at the 2- to 3-leaf stage, the test compounds, in the form of an aqueous suspension (prepared from a wettable powder (Example F3, b) according to WO 97/34485) or in the form of an emulsion (prepared from an emulsifiable concentrate (Example F1, c) according to WO 97/34485), are applied by spraying in an optimum concentration (500 litres of water/ha). The test plants are then grown on in a greenhouse under optimum conditions. After a test duration of 2 to 3 weeks, the test is evaluated in accordance with a scale of nine ratings (1=total damage, 9=no action). Ratings of from 1 to 4 (especially from 1 to 3) indicate good to very good herbicidal action. Test plants: Setaria (Seta), Panicum (Pani), Echinochloa (Ds) (Echino), Amaranthus (Amar), Chenopodium (Cheno), Stellaria (Stella), Veronica, Euphorbia (Eupho).

Chenopodium (Cheno) [2] = test: Post-emergence herbicidal action (Example B2); conditions: 1000 g of active ingredient/ha, evaluated after 2 to 3 weeks, scale 1-9
Description: as §1

Setaria (Seta) [3] = test: Post-emergence herbicidal action (Example B2); conditions: 1000 g of active ingredient/ha, evaluated after 2 to 3 weeks, scale 1-9
Description: as §1

Panicum (Pani) [4] = test: Post-emergence herbicidal action (Example B2); conditions: 1000 g of active ingredient/ha, evaluated after 2 to 3 weeks, scale 1-9
Description: as §1

[5] = test system: Echinochloa (Ds) (Echino); test: Pre-emergence herbicidal action (Example B1); parameters: key: 1=total damage; 9=no action; Ratings of from 1 to 4 (especially from 1 to 3) indicate good to very good herbicidal action; conditions: 1000 g of active ingredient/ha, 4 weeks, scale of nine ratings
Description: as §1, with “Immediately after sowing,” for “When the test plants are at the 2- to 3-leaf stage,”, “grown” for “grown on”, “4” for “2 to 3”, “(Eupho), Brachiaria (Brachi).” for “(Eupho).”

Euphorbia (Eupho) [6] = test: Pre-emergence herbicidal action (Example B1); parameters: key: 1=total damage; 9=no action; Ratings of from 1 to 4 (especially from 1 to 3) indicate good to very good herbicidal action; conditions: 1000 g of active ingredient/ha, 4 weeks, scale of nine ratings
Description: as §1, with “Immediately after sowing,” for “When the test plants are at the 2- to 3-leaf stage,”, “grown” for “grown on”, “4” for “2 to 3”, “(Eupho), Brachiaria (Brachi).” for “(Eupho).”

Amaranthus (Amar) [7] = test: Pre-emergence herbicidal action (Example B1); parameters: key: 1=total damage; 9=no action; Ratings of from 1 to 4 (especially from 1 to 3) indicate good to very good herbicidal action; conditions: 1000 g of active ingredient/ha, 4 weeks, scale of nine ratings
Description: as §1, with “Immediately after sowing,” for “When the test plants are at the 2- to 3-leaf stage,”, “grown” for “grown on”, “4” for “2 to 3”, “(Eupho), Brachiaria (Brachi).” for “(Eupho).”

Setaria (Seta) [8] = test: Pre-emergence herbicidal action (Example B1); parameters: key: 1=total damage; 9=no action; Ratings of from 1 to 4 (especially from 1 to 3) indicate good to very good herbicidal action; conditions: 1000 g of active ingredient/ha, 4 weeks, scale of nine ratings
Description: as §1, with “Immediately after sowing,” for “When the test plants are at the 2- to 3-leaf stage,”, “grown” for “grown on”, “4” for “2 to 3”, “(Eupho), Brachiaria (Brachi).” for “(Eupho).”

Brachiaria (Brachi) = test: Pre-emergence herbicidal action (Example B1); parameters: key: 1=total damage; 9=no action; Ratings of from 1 to 4 (especially from 1 to 3) indicate good to very good herbicidal action; conditions: 1000 g of active ingredient/ha, 4 weeks, scale of nine ratings
Description: as §1, with “Immediately after sowing,” for “When the test plants are at the 2- to 3-leaf stage,”, “grown” for “grown on”, “4” for “2 to 3”, “(Eupho), Brachiaria (Brachi).” for “(Eupho).”

Panicum (Pani) [9] = test: Pre-emergence herbicidal action (Example B1); parameters: key: 1=total damage; 9=no action; Ratings of from 1 to 4 (especially from 1 to 3) indicate good to very good herbicidal action; conditions: 1000 g of active ingredient/ha, 4 weeks, scale of nine ratings
Description: as §1, with “Immediately after sowing,” for “When the test plants are at the 2- to 3-leaf stage,”, “grown” for “grown on”, “4” for “2 to 3”, “(Eupho), Brachiaria (Brachi).” for “(Eupho).”

Euphorbia (Eupho) [10] = test: Post-emergence herbicidal action (Example B2); parameters: key: 1=total damage; 9=no action; Ratings of from 1 to 4 (especially from 1 to 3) indicate good to very good herbicidal action; conditions: 1000 g of active ingredient/ha, evaluated after 2 to 3 weeks, scale 1-9
Description: as §1

Amaranthus (Amar) [11] = test: Post-emergence herbicidal action (Example B2); parameters: key: 1=total damage; 9=no action; Ratings of from 1 to 4 (especially from 1 to 3) indicate good to very good herbicidal action; conditions: 1000 g of active ingredient/ha, evaluated after 2 to 3 weeks, scale 1-9
Description: as §1

Veronica [12] = test: Post-emergence herbicidal action (Example B2); conditions: 1000 g of active ingredient/ha, evaluated after 2 to 3 weeks, scale 1-9
Description: as §1

Stellaria (Stella) [13] = test: Post-emergence herbicidal action (Example B2); conditions: 1000 g of active ingredient/ha, evaluated after 2 to 3 weeks, scale 1-9
Description: as §1

Stellaria (Stella) [14] = test: Pre-emergence herbicidal action (Example B1); parameters: key: 1=total damage; 9=no action; Ratings of from 1 to 4 (especially from 1 to 3) indicate good to very good herbicidal action; conditions: 1000 g of active ingredient/ha, 4 weeks, scale of nine ratings
Description: as §1, with “Immediately after sowing,” for “When the test plants are at the 2- to 3-leaf stage,”, “grown” for “grown on”, “4” for “2 to 3”, “(Eupho), Brachiaria (Brachi).” for “(Eupho).”

Veronica [15] = test: Pre-emergence herbicidal action (Example B1); conditions: 1000 g of active ingredient/ha, 4 weeks, scale of nine ratings
Description: as §1, with “Immediately after sowing,” for “When the test plants are at the 2- to 3-leaf stage,”, “grown” for “grown on”, “4” for “2 to 3”, “(Eupho), Brachiaria (Brachi).” for “(Eupho).”

Chenopodium (Cheno) [16] = test: Pre-emergence herbicidal action (Example B1); parameters: key: 1=total damage; 9=no action; Ratings of from 1 to 4 (especially from 1 to 3) indicate good to very good herbicidal action; conditions: 1000 g of active ingredient/ha, 4 weeks, scale of nine ratings
Description: as §1, with “Immediately after sowing,” for “When the test plants are at the 2- to 3-leaf stage,”, “grown” for “grown on”, “4” for “2 to 3”, “(Eupho), Brachiaria (Brachi).” for “(Eupho).”

Row | SMILES | Post-emergence herbicidal action rating, Echino (Ds) [1] | Post-emergence herbicidal action rating, Cheno (Chenopodium (Cheno) [2]) | Post-emergence herbicidal action rating, Seta (Setaria (Seta) [3]) | Post-emergence herbicidal action rating, Pani (Panicum (Pani) [4]) | Herbicidal rating Echino (Ds) [5] | Herbicidal rating Eupho (Euphorbia (Eupho) [6]) | Herbicidal rating Amar (Amaranthus (Amar) [7]) | Herbicidal rating Seta (Setaria (Seta) [8]) | Herbicidal rating Brachi (Brachiaria (Brachi)) | Herbicidal rating Pani (Panicum (Pani) [9]) | Post-emergence herbicidal action rating, Eupho (Euphorbia (Eupho) [10]) | Post-emergence herbicidal action rating, Amar (Amaranthus (Amar) [11]) | Post-emergence herbicidal action rating, Veronica (Veronica [12]) | Post-emergence herbicidal action rating, Stella (Stellaria (Stella) [13]) | Herbicidal rating Stella (Stellaria (Stella) [14]) | Herbicidal rating Veronica (Veronica [15]) | Herbicidal rating Cheno (Chenopodium (Cheno) [16])
1 | COc1cc(Cl)cnc1OCC#Cc1cccc(OCC#N)n1 [1.063, 2-[3-(6-cyanomethoxy-pyrid-2-yl)-prop-2-ynyloxy]-5-chloro-3-methoxypyridine] | 3 | 2 | 5 | 3 | 4 | 1 | 1 | 2 | 1 | 1 | 1 | 2 |  |  |  |  | 
2 | COc1cc(Cl)cnc1OCC#Cc1ccc(Cl)nc1 [2.006, 5-chloro-2-[3-(6-chloro-pyrid-3-yl)-prop-2-ynyloxy]-3-methoxy-pyridine] |  | 2 | 2 | 2 | 1 | 1 | 1 | 1 | 1 | 1 | 1 | 2 | 2 | 2 | 1 | 5 | 
3 | COc1cc(F)cnc1OCC#Cc1ccc(Cl)nc1 [2.005, 2-[3-(6-chloro-pyrid-3-yl)-prop-2-ynyloxy]-5-fluoro-3-methoxy-pyridine] |  | 3 | 3 | 4 | 1 | 5 |  | 4 | 1 | 4 | 1 | 1 | 2 | 2 | 1 | 4 | 1
